Where two headings read alike, the source gives them in different places.
Tests used:
HT-1080 cells = experiment: Protection against Erastin-induced ferroptosis in HT-1080 cells (CellTiter-Glo); assay type: cell-based; conditions: for Erastin-induced ferroptosis in HT-1080 cells: % activity remaining at 1 μM / % Activity remaining (value at a concentration of 1 μM): compound 1 μM; for % Activity remaining (value at a concentration of 1 μM): relative to vehicle and Erastin samples
Experimental: Compounds 6c, 6e, 6f, and 6i, as described above, were tested at a concentration of 1 μM, yielding values of 6c (85%), 6e (80%), 6f (77%), 6g (16%), 6h (78%), 6i (57%), and 6j (83%). For comparison, JP4-039 yielded a value of 56%. […] Briefly, 200 μL of a 5,000 cell/mL solution of HT-1080 cells were incubated for 24 h at 37° C. at 5% CO2, 95% humidity. The compounds were dissolved in DMSO and diluted to desired testing concentration. Compounds (1 μL) were added to culture medium (1 mL) containing 10 μM Erastin and incubated at 37° C., 5% CO2, 95% humidity for 24 h. CellTiter-Glo® reagent was added and the plate was incubated for 20 min at rt, sealed, centrifuged (1 min) at 1,000 rpm, shaken (1 min), and read in Enspire. % Activity remaining was determined as a function of vehicle sample and Erastin sample.
B. Compounds 6a-6n were tested for their protection against Erastin-induced ferroptosis in HT-1080 cells. Briefly, 200 μL of a 5,000 cell/mL solution of HT-1080 cells were incubated for 24 h at 37° C. at 5% CO2, 95% humidity. The compounds were dissolved in DMSO and diluted to desired testing concentration. Compounds (1 μL) were added to culture medium (1 mL) containing 10 μM Erastin and incubated at 37° C., 5% CO2, 95% humidity for 24 h. CellTiter-Glo® reagent was added and the plate was incubated for 20 min at rt, sealed, centrifuged (1 min) at 1,000 rpm, shaken (1 min), and read in Enspire. % Activity remaining was determined as a function of vehicle sample and Erastin sample.

[1] = 10 μM Erastin, 24 h, HT-1080 cells
[2] = 10 μM Erastin, 24 h, HT-1080 cells, read-out: EC50

Compound	logP (log P)	Erastin-induced ferroptosis in HT-1080 cells: % activity remaining at 1 μM (HT-1080 cells; [1]) [%]	% Activity remaining (value at a concentration of 1 μM) (HT-1080 cells; [1]) [%]	log P (log P)	other results
CC(C)(C)OC(=O)N[C@@H](/C=C/CC(=O)NC1CC(C)(C)N([O])C(C)(C)C1)c1ccccc1 [6b, tert-Butyl (S,E)-(5-((1-oxy-2,2,6,6-tetramethylpiperidin-4-yl)amino)-5-oxo-1-phenylpent-2-en-1-yl)carbamate]	2.92				EC50 (HT-1080 cells; Homo sapiens, HT-1080, 24 h): 948 nM
CC(C)C[C@@H](/C=C/CNC(=O)C1CC(C)(C)N([O])C(C)(C)C1)NC(=O)OC(C)(C)C [6i, tert-Butyl (S,E)-(1-(1-oxy-2,2,6,6-tetramethylpiperidine-4-carboxamido)-6-methylhept-2-en-4-yl)carbamate]	3.15	57	57		
CC(C)C[C@@H](/C=C/[C@H](Cc1ccccc1)C(=O)NC1CC(C)(C)N(O)C(C)(C)C1)NC(=O)OC(C)(C)C [6j, tert-Butyl ((4S,7S,E)-7-benzyl-8-((1-oxy-2,2,6,6-tetramethylpiperidin-4-yl)amino)-2-methyl-8-oxooct-5-en-4-yl)carbamate]	4.93	83	83		EC50 (HT-1080 cells; Homo sapiens, 10 μM Erastin, 24 h, HT-1080 cells, read-out: EC50): 207 nM; EC50 (HT-1080 cells; Homo sapiens, 10 μM Erastin, 24 h, HT-1080 cells, read-out: Erastin-induced ferroptosis in HT-1080 cells: EC50): 207 nM
CC(C)C[C@@H](/C=C/[C@H](Cc1ccc(F)cc1)C(=O)NC1CC(C)(C)N(O)C(C)(C)C1)NC(=O)OC(C)(C)C [6k, tert-Butyl ((4S,7S,E)-7-(4-fluorobenzyl)-8-((1-oxy-2,2,6,6-tetramethylpiperidin-4-yl)amino)-2-methyl-8-oxooct-5-en-4-yl)carbamate]	5.09				
CC(C)CC(C=CCC(=O)NC1CC(C)(C)N([O])C(C)(C)C1)NC(=O)OC(C)(C)C [6l, tert-Butyl (S,Z)-(8-((1-oxy-2,2,6,6-tetramethylpiperidin-4-yl)amino)-2-methyl-8-oxooct-5-en-4-yl)carbamate]				2.76	
CC(C)C[C@@H](CCCC(=O)NC1CC(C)(C)N([O])C(C)(C)C1)NC(=O)OC(C)(C)C [6m, tert-Butyl (R)-(8-((1-oxy-2,2,6,6-tetramethylpiperidin-4-yl)amino)-2-methyl-8-oxooctan-4-yl)carbamate]	2.94				
CCCCCCCC(=O)NC1CC(C)(C)N([O])C(C)(C)C1 [6n, N-(1-Oxy-2,2,6,6-tetramethylpiperidin-4-yl)octanamide]	2.83				
tert-Butyl (S,E)-(1-(1-((1-oxy-2,2,6,6-tetramethylpiperidin-4-yl)carbamoyl)cyclopentyl)-5-methylhex-1-en-3-yl)carbamate [6f]		77	77	4.37	
tert-Butyl (S,E)-(1-(1-((1-oxy-2,2,6,6-tetramethylpiperidin-4-yl)carbamoyl)cyclopropyl)-5-methylhex-1-en-3-yl)carbamate [6e]		80	80	3.53	EC50 (HT-1080 cells; 10 μM Erastin, 24 h, HT-1080 cells, read-out: Erastin-induced ferroptosis in HT-1080 cells: EC50): 958 nM
tert-Butyl (S,E)-(1-(4-((1-oxy-2,2,6,6-tetramethylpiperidin-4-yl)carbamoyl)tetrahydro-2H-pyran-4-yl)-5-methylhex-1-en-3-yl)carbamate [6g]		16	16	3.10	
tert-Butyl (S,E)-(5-((1-oxy-2,2,6,6-tetramethylpiperidin-4-yl)amino)-4,4-dimethyl-5-oxo-1-phenylpent-2-en-1-yl)carbamate [6a]				4.19	
tert-Butyl (S,E)-(7,7-dibenzyl-8-((1-oxy-2,2,6,6-tetramethylpiperidin-4-yl)amino)-2-methyl-8-oxooct-5-en-4-yl)carbamate [6d]		78		7.24	EC50 (HT-1080 cells; [2]): 173 nM
tert-Butyl (S,E)-(7-(1-oxy-2,2,6,6-tetramethylpiperidine-4-carboxamido)-2,7-dimethyloct-5-en-4-yl)carbamate [6h]		78	78	3.68	EC50 (HT-1080 cells; [2]): 576 nM
tert-Butyl (S,E)-(8-((1-oxy-2,2,6,6-tetramethylpiperidin-4-yl)amino)-2,7,7-trimethyl-8-oxooct-5-en-4-yl)carbamate [6c]		85	85	4.03	
